Reference: patent US10357546B2, “Acceleration of diabetic wound healing” (University of Notre Dame du Lac, priority 2014, dated 2019)
pKi: −log10 of the molar value. “Also recorded” adds a separate entry of the source. Counter-ions that a name gives are not always drawn. Like-named read-outs stand apart in the source and are kept apart here.

Columns and labels:
[1] = biological target: MMP-8 (Homo sapiens (Human), UniProt P22894); assay: Enzyme inhibition, MMP-8 catalytic domain; format: biochemical
Experimental: (§5) Inhibitor stock solutions (10 mM) were prepared freshly in DMSO before enzyme inhibition assays. […] Enzyme inhibition studies were carried out using a Cary Eclipse fluorescence spectrophotometer (Varian, Walnut Creek, Calif., USA).

[2] = biological target: MMP-9 (Homo sapiens (Human), UniProt P14780); assay: Enzyme inhibition, MMP-9 catalytic domain; format: biochemical; conditions: for residence time: calculated as 1/koff
Experimental: as §5

[3] = biological target: MMP-1 (Homo sapiens (Human), UniProt P03956); assay: Enzyme inhibition, MMP-1 catalytic domain; format: biochemical
Description: (§1) Human recombinant active MMP-2 and MMP-7, and the catalytic domains of MMP-3 and MMP-14/MT1-MMP were purchased from EMD Chemicals, Inc. (San Diego, Calif., USA); human recombinant catalytic domains of MMP-1, MMP-8, and MMP-9 were purchased from Enzo Life Sciences, Inc. (Farmingdale, N.Y., USA); human recombinant active ADAM9 and ADAM10 were purchased from R&D Systems (Minneapolis, Minn., USA). Fluorogenic substrates MOCAc-Pro-Leu-Gly-Leu-A2pr(Dnp)-Ala-Arg-NH2 (for MMP-2, MMP-7, MMP-9 and MMP-14) and MOCAc-Arg-Pro-Lys-Pro-Val-Glu-Nva-Trp-Arg-Lys(Dnp)-NH2 (for MMP-3) were purchased from Peptides International (Louisville, Ky., USA); Mca-KPLGL-Dpa-AR-NH2 (for MMP-1, MMP-8 and ADAM10) and Mca-PLAQAV-Dpa-RSSSR-NH2 (for ADAM9) were purchased from R&D Systems (Minneapolis, Minn., USA). The Km values for MMP-2, MMP-9 and MMP-14 were the same as previously reported by Gooyit et al. ((2013) J. Med. Chem. 56(20):8139-8150). Inhibitor stock solutions (10 mM) were prepared freshly in DMSO before enzyme inhibition assays. We followed the same methodology for enzyme inhibition studies as reported before by Page-McCaw et al. ((2007) Nat Rev Mol Cell Biol 8(3):221-233). Enzyme inhibition studies were carried out using a Cary Eclipse fluorescence spectrophotometer (Varian, Walnut Creek, Calif., USA).

[4] = biological target: MMP-2 (Homo sapiens (Human), UniProt P08253); assay: Enzyme inhibition, MMP-2; format: biochemical
Description: as §1

[5] = biological target: MMP-3 (Homo sapiens (Human), UniProt P08254); assay: Enzyme inhibition, MMP-3 catalytic domain; format: biochemical
Description: as §1

[6] = biological target: MMP-7 (Homo sapiens (Human), UniProt P09237); assay: Enzyme inhibition, MMP-7; format: biochemical
Description: as §1

[7] = biological target: MMP-14 (Homo sapiens (Human), UniProt P50281); assay: Enzyme inhibition, MMP-14 catalytic domain; format: biochemical
Description: as §1

[8] = biological target: ADAM9 (Homo sapiens (Human), UniProt Q13443); assay: Enzyme inhibition, ADAM9; format: biochemical
Description: as §1

[9] = biological target: ADAM10 (Homo sapiens (Human), UniProt O14672); assay: Enzyme inhibition, ADAM10; format: biochemical
Description: as §1

[10] = Stability in the buffers of the kinetic assays; format: physicochemical
[11] = test system: diabetic wounds of db/db mice; assay: Excisional diabetic wound model, wound closure; format: in vivo, mouse
Experimental: Female diabetic db/db mice (BKS.Cg-Dock7^m+/+Lepr^db/J, 8-weeks old) were purchased from the Jackson Laboratory (Bar Harbor, Me., USA) and fed 5001 Laboratory Rodent Diet (LabDiet, St. Louis, Mo., USA) and water ad libitum. Mice were housed in polycarbonate shoebox cages with hardwood bedding at 72±2° F. and 12 h light/12 h dark.
The dorsal area of the mice was shaved, and a single excisional 8-mm diameter wound (50 mm^2) was made on the dorsal thorax with a biopsy punch (Miltex, Plainsboro, N.J., USA) while the animals were under isofluorane anesthesia. Wounds were covered with Tegaderm™ dressing (3M Company, St. Paul, Minn., USA). Topical treatment was started the next day.
Mice were anesthetized with isofluorane, and wounds were photographed with an Olympus SP-800 UZ camera mounted on a tripod at a fixed distance; a ruler was included in the digital photo. Wound areas were calculated using NIH ImageJ software (version 1.48) and expressed as percent change in wound area relative to day 0.
(§2) Wound measurements were taken on days 0, 7, 10, and 14. Animals were sacrificed on day 14 and wounds analyzed by H&E staining, TUNEL, and in-situ zymography.
Female diabetic db/db (BKS.Cg-Dock7m+/+Leprdb/J, 8-weeks old, 38±3 g, n=24) were used for this study. Wounds were inflicted as described and the following day the wounds were treated topically with MMP-8 (50 μL of 20 μg/mL MMP-8 in reaction buffer) or vehicle (50 μL reaction buffer) once a day for 14 days. The reaction buffer consisted of 50 mM Tris (pH 7.5), 10 mM CaCl2, 150 mM NaCl, and 0.05% (w/v) Brij-35 (polyoxyethyleneglycoli dodecyl ether). Digital photographs of the wounds were taken on days 0, 7, 10, and 14 while animals were under isoflurane anesthesia. On days 7 and 14, 12 mice (n=6 per group) were sacrificed. The wounds were excised, embedded in OCT compound, and cryosectioned for histological evaluation and in-situ zymography.
(§3) Mice were sacrificed on days 7, 10, and 14, and the excised wounds were embedded in OCT compound and cryosectioned for histological evaluation and in situ zymography.

[12] = test system: re-epithelialization of diabetic wounds; assay: H&E staining, re-epithelialization of diabetic wounds; format: in vivo, mouse; conditions: db/db mice, ND-336 0.1 mg/wound/day, day 14
Experimental: as §2
Female diabetic db/db (BKS.Cg-Dock7m+/+Leprdb/J, 8-weeks old, 38±3 g, n=24) were used for this study. Wounds were inflicted as described and the following day the wounds were treated topically with MMP-8 (50 μL of 20 μg/mL MMP-8 in reaction buffer) or vehicle (50 μL reaction buffer) once a day for 14 days. The reaction buffer consisted of 50 mM Tris (pH 7.5), 10 mM CaCl2, 150 mM NaCl, and 0.05% (w/v) Brij-35 (polyoxyethyleneglycoli dodecyl ether). […]
Wounds were embedded in optimal cutting temperature (OCT, Tissue-Tek, Sakura Finetek, Torrance, Calif., USA) compound and cryosectioned at 12-μm thickness for hematoxylin-eosin (H&E) and at 8-μm thickness for in-situ zymography. Re-epithelialization was assessed on a fluorescent microscope (Nikon Eclipse 90i, Nikon Instruments, Inc., Melville, N.Y., USA). Apoptotic cells in wound sections were assessed using a modified terminal deoxynucleotidyl transferase-mediated dUTP-nick-end labeling (TUNEL) assay kit, following the manufacturer's instructions (Trevigen, Inc., Gaithersburg, Md., USA). […] After fixation in 4% paraformaldehyde in PBS, cells were counterstained with DAPI and the images were visualized by fluorescence microscopy. […]

[13] = test system: apoptotic cells in diabetic wounds; assay: TUNEL apoptosis detection in diabetic wounds; format: in vivo, mouse; conditions: db/db mice, ND-336 0.1 mg/wound/day, day 14
Description: as §2, §3
Wounds were embedded in optimal cutting temperature (OCT, Tissue-Tek, Sakura Finetek, Torrance, Calif., USA) compound and cryosectioned at 12-μm thickness for hematoxylin-eosin (H&E) and at 8-μm thickness for in-situ zymography. Re-epithelialization was assessed on a fluorescent microscope (Nikon Eclipse 90i, Nikon Instruments, Inc., Melville, N.Y., USA). Apoptotic cells in wound sections were assessed using a modified terminal deoxynucleotidyl transferase-mediated dUTP-nick-end labeling (TUNEL) assay kit, following the manufacturer's instructions (Trevigen, Inc., Gaithersburg, Md., USA). For in-situ zymography, unfixed cryostat sections of wound tissues were incubated in reaction buffer (50 mM TBS pH 7.6) containing DQ-gelatin or DQ-collagen (Molecular Probes, Inc., Eugene, Oreg., USA) at 37° C. for 6 h. After fixation in 4% paraformaldehyde in PBS, cells were counterstained with DAPI and the images were visualized by fluorescence microscopy. […]

[14] = test system: MMP-9 activity (gelatinase) in diabetic wounds; assay: In-situ zymography with DQ-gelatin; format: in vivo, mouse; conditions: db/db mice
Description: (§6) In-situ zymography detects MMP activity in vivo using the fluorogenic substrates: DQ-gelatin for gelatinase (MMP-2 and MMP-9) activity and DQ-collagen for collagenase (MMP-1, MMP-8, and MMP-13) activity.
(§7) Wounds were embedded in optimal cutting temperature (OCT, Tissue-Tek, Sakura Finetek, Torrance, Calif., USA) compound and cryosectioned at 12-μm thickness for hematoxylin-eosin (H&E) and at 8-μm thickness for in-situ zymography. […] For in-situ zymography, unfixed cryostat sections of wound tissues were incubated in reaction buffer (50 mM TBS pH 7.6) containing DQ-gelatin or DQ-collagen (Molecular Probes, Inc., Eugene, Oreg., USA) at 37° C. for 6 h. After fixation in 4% paraformaldehyde in PBS, cells were counterstained with DAPI and the images were visualized by fluorescence microscopy. […] The images for in-situ zymography and vascular density were obtained by confocal microscopy.

[15] = test system: MMP-8 activity (collagenase) in diabetic wounds; assay: In-situ zymography with DQ-collagen; format: in vivo, mouse; conditions: db/db mice
Description: as §6, §7

[16] = test system: IL-6; assay: IL-6 in wound tissue by ELISA; format: in vivo, mouse; conditions: db/db mice, versus vehicle
Experimental: as §3
(§4) Wound tissues (n=3 mice/group) were harvested and immediately frozen in liquid nitrogen on days 1, 3, and 14. The extracted tissues were homogenized in cold lysis buffer containing free-EDTA protease inhibitor cocktail (Pierce, Rockford, Ill., USA). The lysates were analyzed for protein concentration by the Bradford protein assay (Bio-Rad, Hercules, Calif., USA). The levels of IL-6, TGF-β1 and VEGF in the lysates were determined by ELISA, following the manufacturer's protocol (Abcam, Cambridge, Mass., USA). The cytokine levels for each mouse sample were expressed in picograms/mg tissue.

[17] = test system: TGF-β1; assay: TGF-β1 in wound tissue by ELISA; format: in vivo, mouse; conditions: db/db mice, versus vehicle
Experimental: as §3, §4

[18] = test system: VEGF; assay: VEGF in wound tissue by ELISA; format: in vivo, mouse; conditions: db/db mice
Experimental: as §3, §4

[19] = test system: CD31; assay: Angiogenesis by anti-CD31 staining; format: in vivo, mouse; conditions: db/db mice wounds
Experimental: Wounds were embedded in optimal cutting temperature (OCT, Tissue-Tek, Sakura Finetek, Torrance, Calif., USA) compound and cryosectioned at 12-μm thickness for hematoxylin-eosin (H&E) and at 8-μm thickness for in-situ zymography. Re-epithelialization was assessed on a fluorescent microscope (Nikon Eclipse 90i, Nikon Instruments, Inc., Melville, N.Y., USA). Apoptotic cells in wound sections were assessed using a modified terminal deoxynucleotidyl transferase-mediated dUTP-nick-end labeling (TUNEL) assay kit, following the manufacturer's instructions (Trevigen, Inc., Gaithersburg, Md., USA). For in-situ zymography, unfixed cryostat sections of wound tissues were incubated in reaction buffer (50 mM TBS pH 7.6) containing DQ-gelatin or DQ-collagen (Molecular Probes, Inc., Eugene, Oreg., USA) at 37° C. for 6 h. After fixation in 4% paraformaldehyde in PBS, cells were counterstained with DAPI and the images were visualized by fluorescence microscopy. Immunofluorescent detection of vascular density was performed by staining the tissues with Alexa Fluor 488 anti-mouse CD31 (BioLegend, San Diego, Calif., USA), followed by staining the nuclei with DAPI. The images for in-situ zymography and vascular density were obtained by confocal microscopy.

[20] = topical ND-336 0.1 mg/wound/day
[21] = combination study: ND-336 0.05 mg/wound/day, MMP-8 1 μg/wound/day

Chain of MMP-9 (P14780 107-444): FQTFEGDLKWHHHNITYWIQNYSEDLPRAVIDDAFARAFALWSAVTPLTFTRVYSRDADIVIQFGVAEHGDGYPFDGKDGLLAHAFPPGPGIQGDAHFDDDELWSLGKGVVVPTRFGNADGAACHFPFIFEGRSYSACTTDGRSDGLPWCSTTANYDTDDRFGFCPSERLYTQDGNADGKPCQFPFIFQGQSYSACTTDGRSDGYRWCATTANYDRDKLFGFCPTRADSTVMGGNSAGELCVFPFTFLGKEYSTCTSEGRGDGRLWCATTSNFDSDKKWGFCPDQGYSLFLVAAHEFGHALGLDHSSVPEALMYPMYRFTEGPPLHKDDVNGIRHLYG
Chain of MMP-8 (P22894 100-262): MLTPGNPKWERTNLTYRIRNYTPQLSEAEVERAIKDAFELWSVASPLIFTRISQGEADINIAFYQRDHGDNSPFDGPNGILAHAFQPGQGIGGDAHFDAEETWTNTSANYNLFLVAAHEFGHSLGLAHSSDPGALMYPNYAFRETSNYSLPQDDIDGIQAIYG
Chain of ADAM10 (O14672 214-672): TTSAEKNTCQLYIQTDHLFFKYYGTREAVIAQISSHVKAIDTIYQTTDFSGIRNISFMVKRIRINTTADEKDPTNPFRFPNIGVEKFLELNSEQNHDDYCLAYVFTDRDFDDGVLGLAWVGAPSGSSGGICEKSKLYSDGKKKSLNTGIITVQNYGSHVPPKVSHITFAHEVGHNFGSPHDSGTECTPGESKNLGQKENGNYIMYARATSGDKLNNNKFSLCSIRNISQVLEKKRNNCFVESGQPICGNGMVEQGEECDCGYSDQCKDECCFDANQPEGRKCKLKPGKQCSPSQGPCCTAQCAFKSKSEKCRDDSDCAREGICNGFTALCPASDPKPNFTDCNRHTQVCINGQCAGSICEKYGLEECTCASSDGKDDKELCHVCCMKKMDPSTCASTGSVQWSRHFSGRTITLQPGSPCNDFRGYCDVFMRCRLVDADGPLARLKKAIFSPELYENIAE
Chain of MMP-3 (P08254 100-272): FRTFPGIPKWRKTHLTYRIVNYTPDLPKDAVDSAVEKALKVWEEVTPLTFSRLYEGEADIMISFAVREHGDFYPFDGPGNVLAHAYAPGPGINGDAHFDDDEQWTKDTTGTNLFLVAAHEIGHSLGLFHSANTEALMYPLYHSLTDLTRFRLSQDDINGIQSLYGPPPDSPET
Chain of ADAM9 (Q13443 whole entry, looked up, change not shown): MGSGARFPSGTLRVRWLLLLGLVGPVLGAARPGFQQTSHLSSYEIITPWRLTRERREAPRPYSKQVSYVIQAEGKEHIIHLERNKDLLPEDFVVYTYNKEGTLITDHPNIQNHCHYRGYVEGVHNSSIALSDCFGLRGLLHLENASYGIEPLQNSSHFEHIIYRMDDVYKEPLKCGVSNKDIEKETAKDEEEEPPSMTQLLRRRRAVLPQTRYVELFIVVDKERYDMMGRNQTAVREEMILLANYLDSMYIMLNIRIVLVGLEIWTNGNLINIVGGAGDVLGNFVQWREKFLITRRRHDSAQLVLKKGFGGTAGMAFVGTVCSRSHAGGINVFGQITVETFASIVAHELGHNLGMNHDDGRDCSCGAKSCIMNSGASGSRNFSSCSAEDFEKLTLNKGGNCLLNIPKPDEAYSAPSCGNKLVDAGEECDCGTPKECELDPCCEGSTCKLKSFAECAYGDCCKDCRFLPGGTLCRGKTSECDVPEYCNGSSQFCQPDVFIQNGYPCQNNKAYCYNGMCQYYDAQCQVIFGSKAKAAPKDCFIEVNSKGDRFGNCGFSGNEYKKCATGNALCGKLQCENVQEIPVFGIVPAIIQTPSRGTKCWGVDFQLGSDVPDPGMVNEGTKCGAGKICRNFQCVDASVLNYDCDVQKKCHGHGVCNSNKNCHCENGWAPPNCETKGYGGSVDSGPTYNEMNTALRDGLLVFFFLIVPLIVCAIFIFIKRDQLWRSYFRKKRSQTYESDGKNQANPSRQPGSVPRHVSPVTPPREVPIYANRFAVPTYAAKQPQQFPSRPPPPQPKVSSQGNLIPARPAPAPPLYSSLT
Chain of MMP-7 (P09237 95-267): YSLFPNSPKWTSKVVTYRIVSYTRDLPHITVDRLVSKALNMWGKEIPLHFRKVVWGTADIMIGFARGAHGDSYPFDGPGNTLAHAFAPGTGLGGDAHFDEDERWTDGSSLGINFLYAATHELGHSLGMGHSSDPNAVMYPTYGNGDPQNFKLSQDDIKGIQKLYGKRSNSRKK
Chain of MMP-1 (P03956 100-269): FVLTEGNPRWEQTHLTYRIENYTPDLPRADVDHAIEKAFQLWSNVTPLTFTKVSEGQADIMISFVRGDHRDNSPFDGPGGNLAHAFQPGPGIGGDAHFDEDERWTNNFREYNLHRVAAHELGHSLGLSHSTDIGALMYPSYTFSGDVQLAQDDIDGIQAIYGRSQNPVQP
Chain of MMP-2 (P08253 110-660): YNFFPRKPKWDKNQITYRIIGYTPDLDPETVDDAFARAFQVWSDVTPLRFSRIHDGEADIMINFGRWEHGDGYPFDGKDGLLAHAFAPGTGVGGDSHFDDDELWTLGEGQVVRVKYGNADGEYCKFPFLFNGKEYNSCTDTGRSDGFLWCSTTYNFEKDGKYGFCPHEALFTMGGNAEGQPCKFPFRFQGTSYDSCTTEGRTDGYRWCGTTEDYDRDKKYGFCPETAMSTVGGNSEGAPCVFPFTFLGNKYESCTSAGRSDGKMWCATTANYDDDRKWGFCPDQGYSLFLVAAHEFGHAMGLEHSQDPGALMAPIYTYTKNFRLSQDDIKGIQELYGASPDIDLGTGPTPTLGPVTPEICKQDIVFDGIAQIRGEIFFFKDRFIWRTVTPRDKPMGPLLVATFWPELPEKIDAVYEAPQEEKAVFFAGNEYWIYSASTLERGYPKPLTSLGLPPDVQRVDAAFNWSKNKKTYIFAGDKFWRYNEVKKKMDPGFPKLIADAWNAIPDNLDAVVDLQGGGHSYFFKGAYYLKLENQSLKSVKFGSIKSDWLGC

CS(=O)(=O)Oc1ccc(Oc2ccc(S(=O)(=O)CC3CS3)cc2)cc1 (centres unmarked) [JNMS-38]
Inhibition type, MMP-8 [1]: linear competitive | Inhibition type, MMP-9 [2]: slow-binding

Nc1ccc(Oc2ccc(S(=O)(=O)CC3CS3)cc2)cc1 (centres unmarked) [ND-322]
Inhibition type, MMP-9 [2]: slow-binding

NCc1ccc(Oc2ccc(S(=O)(=O)CC3CS3)cc2)cc1 (centres unmarked) [ND-336, (4-(4-((Thiiran-2-ylmethyl)sulfonyl)phenoxy)phenyl)methanamine HCl salt]
inhibition of MMP-1 (in words) [3]: marginal to no inhibition | inhibition at 100 µM ([3]; @ 100 μM, catalytic domain): 4% | Inhibition type, MMP-2 [4]: slow-binding | inhibition of MMP-3 (in words) [5]: marginal to no inhibition | inhibition at 100 µM ([5]; @ 100 μM, catalytic domain): 23% | inhibition of MMP-7 (in words) [6]: marginal to no inhibition | inhibition at 100 µM ([6]; @ 100 μM): 1% | Inhibition type, MMP-8 ([1]; HCl salt): linear noncompetitive; also recorded: linear non-competitive | Inhibition type, MMP-9 [2]: slow-binding | lower Ki for MMP-9 than for MMP-8 ([2]; MMP-9 versus MMP-8): 50 fold | Inhibition type, MMP-14 [7]: slow-binding | inhibition at 100 µM ([8]; @ 100 μM): 31% | inhibition of ADAM9 (in words) ([8]; printed as ADAMS): marginal to no inhibition | inhibition of ADAM10 (in words) [9]: marginal to no inhibition | inhibition at 100 µM ([9]; @ 100 μM): 14% | stability in the buffers used in the kinetic assays [10]: stable | wound healing in dose-response study ([11]; 0.05 mg/wound/day, day 14, versus vehicle and 0.025 and 0.01 mg/wound/day): significant better healing | diabetic wound healing (in words) [11, 20]: accelerated diabetic wound healing | wound healing faster than vehicle [11, 20]: about 2 fold | re-epithelialization (H&E) [12]: almost complete re-epithelialization | apoptosis (TUNEL) [13]: significantly decreased | MMP-9 activity in wounds (DQ-gelatin) ([14]; ND-336 0.1 mg/wound/day): significantly decreased | MMP-9 activity in wounds (DQ-gelatin) [14, 21]: inhibition of MMP-9 | MMP-8 activity in wounds (DQ-collagen) ([15]; ND-336 0.1 mg/wound/day): not affected | MMP-8 activity in wounds (DQ-collagen) [15, 21]: presence of MMP-8 | Area-under-the-curve (AUC) for IL-6 [16]: significantly reduced | IL-6 concentrations in wounds ([16]; days 1, 3, 14): significantly reduced | Area-under-the-curve (AUC) for TGF-β1 [17]: significantly reduced | levels of TGF-β1 in wounds ([17]; days 1, 3, 14): significantly reduced | VEGF concentrations in the wounds ([18]; compared to vehicle): increased | Area-under-the-curve (AUC) for VEGF ([18]; versus vehicle): significantly increased | angiogenesis by anti-CD31 antibodies [19]: increased angiogenesis

COC(=O)Nc1ccc(Oc2ccc(S(=O)(=O)CC3CS3)cc2)cc1 (centres unmarked) [ND-380]
Inhibition type, MMP-8 [1]: non-competitive | pKi [1]: 4.89 | Inhibition type, MMP-9 [2]: slow-binding | residence time [2]: 19.6 min

CCOC(=O)Nc1ccc(Oc2ccc(S(=O)(=O)CC3CS3)cc2)cc1 (centres unmarked) [ND-394]
Inhibition type, MMP-8 [1]: non-competitive | pKi [1]: 4.82 | Inhibition type, MMP-9 [2]: slow-binding | pKi [2]: 6.07 | residence time [2]: 25.6 min
